According to PMC9942120 (iScience, 2023):

Assays:
Test in all cases: direct LC-MS/MS profiling of modified tryptic peptides
Format in all cases: cell-based
[1] = target: T1, RTN4 (Homo sapiens, UniProt Q9NQC3); settings: covalent at Cys1101; H358 cells, […] AMG510, […] h (methods print […] h)
T1 sequence (Q9NQC3 1-1192): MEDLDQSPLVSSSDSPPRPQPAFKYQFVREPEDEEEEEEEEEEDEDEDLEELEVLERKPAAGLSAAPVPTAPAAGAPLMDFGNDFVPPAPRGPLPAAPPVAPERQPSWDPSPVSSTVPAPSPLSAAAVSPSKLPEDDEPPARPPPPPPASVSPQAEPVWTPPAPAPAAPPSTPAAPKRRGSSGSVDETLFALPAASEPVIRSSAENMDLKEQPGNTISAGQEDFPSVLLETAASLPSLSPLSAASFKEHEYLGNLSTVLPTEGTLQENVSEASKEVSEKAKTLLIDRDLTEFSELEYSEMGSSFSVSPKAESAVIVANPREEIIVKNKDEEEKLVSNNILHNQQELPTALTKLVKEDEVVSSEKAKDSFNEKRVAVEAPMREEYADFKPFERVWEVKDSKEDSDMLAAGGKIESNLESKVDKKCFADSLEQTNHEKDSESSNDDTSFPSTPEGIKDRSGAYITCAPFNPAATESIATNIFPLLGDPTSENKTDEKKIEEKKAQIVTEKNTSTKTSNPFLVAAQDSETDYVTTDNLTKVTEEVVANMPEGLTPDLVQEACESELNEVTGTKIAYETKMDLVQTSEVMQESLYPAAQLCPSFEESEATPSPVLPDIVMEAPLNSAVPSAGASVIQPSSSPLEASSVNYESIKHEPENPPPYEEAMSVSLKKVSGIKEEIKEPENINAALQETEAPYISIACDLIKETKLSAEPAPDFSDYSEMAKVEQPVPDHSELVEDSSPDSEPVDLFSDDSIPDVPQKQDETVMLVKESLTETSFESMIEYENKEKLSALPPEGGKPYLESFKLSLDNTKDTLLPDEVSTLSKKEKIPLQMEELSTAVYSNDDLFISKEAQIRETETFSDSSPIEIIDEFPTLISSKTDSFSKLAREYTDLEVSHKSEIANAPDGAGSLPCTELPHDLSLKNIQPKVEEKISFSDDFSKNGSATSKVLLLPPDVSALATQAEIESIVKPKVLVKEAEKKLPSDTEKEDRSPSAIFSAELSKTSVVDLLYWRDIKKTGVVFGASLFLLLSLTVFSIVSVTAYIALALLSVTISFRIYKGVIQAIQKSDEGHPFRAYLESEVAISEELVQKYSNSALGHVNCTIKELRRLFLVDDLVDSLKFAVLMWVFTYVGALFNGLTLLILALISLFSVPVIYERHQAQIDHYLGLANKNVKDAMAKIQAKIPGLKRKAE

[2] = target: T2, SPTLC2 (Homo sapiens, UniProt O15270); settings: covalent at Cys99; H358 cells, […] AMG510, […] h (methods print […] h)
T2 sequence (O15270 1-562): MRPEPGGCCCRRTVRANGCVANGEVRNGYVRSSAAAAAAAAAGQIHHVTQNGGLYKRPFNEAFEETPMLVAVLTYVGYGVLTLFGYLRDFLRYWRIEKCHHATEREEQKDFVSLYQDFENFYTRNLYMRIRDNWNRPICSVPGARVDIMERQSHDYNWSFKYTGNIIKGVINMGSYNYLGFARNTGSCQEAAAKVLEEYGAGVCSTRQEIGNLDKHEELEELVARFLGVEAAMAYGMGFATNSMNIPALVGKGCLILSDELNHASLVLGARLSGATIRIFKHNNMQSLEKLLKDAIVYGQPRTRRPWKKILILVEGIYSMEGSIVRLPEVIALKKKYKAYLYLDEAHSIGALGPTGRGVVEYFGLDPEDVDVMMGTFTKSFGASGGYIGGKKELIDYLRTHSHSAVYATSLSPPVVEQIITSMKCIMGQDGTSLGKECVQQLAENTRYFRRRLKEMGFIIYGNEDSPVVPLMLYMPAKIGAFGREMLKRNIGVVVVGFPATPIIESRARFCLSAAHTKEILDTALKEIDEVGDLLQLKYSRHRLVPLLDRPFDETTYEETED

[3] = target: T3, PLOD3 (Homo sapiens, UniProt O60568); settings: covalent at Cys691; H358 cells, […] AMG510, […] h (methods print […] h)
T3 sequence (O60568 25-738): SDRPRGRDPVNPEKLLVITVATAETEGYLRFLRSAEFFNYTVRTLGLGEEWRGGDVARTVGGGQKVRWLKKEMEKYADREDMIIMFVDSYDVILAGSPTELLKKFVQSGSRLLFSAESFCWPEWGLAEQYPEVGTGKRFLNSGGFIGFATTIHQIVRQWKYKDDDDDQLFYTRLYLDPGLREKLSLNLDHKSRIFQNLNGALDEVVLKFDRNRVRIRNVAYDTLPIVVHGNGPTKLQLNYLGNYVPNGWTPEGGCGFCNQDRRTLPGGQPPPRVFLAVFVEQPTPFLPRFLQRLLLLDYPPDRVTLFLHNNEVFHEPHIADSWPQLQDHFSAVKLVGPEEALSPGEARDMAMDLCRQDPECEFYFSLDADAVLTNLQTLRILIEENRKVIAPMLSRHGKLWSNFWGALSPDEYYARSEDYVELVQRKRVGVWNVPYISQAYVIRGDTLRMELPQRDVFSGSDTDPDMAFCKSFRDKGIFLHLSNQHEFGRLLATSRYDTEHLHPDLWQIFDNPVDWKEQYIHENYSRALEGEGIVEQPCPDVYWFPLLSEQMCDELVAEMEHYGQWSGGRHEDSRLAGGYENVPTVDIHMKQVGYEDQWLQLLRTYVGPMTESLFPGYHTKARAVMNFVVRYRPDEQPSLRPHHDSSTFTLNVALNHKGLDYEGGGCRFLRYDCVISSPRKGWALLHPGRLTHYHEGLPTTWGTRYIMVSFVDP

[4] = target: T4, RAE1 (Homo sapiens, UniProt P78406); settings: covalent at Cys106; H358 cells, […] AMG510, […] h (methods print […] h)
T4 sequence (P78406 1-368): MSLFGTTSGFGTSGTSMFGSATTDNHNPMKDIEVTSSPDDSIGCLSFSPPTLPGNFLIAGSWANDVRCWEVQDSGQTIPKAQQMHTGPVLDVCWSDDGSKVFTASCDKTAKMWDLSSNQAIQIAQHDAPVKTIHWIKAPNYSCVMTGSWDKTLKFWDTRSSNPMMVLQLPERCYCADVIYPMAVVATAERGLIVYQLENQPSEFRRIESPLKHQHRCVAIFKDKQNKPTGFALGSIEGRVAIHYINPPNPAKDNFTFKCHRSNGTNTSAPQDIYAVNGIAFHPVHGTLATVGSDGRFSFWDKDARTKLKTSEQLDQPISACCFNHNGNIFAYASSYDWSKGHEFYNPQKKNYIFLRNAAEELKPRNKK

C=CC(=O)N1CCN(c2nc(=O)n(-c3c(C)ccnc3C(C)C)c3nc(-c4c(O)cccc4F)c(F)cc23)[C@@H](C)C1 [AMG510] was tested, and the “direct LC-MS/MS profiling of modified tryptic peptides” value (from here on “direct LC-MS/MS profiling”) [1] was “off-targets that were identified in previous studies (RTN4 C1101 and HMOX2 C282)”, the “direct LC-MS/MS profiling” value [2] was “They included enzymes (PLOD3 C691, RPE C5, SPTLC2 C99, UBE2O C370, and TK1 C3)” and the “direct LC-MS/MS profiling” value [3] was “They included enzymes (PLOD3 C691, RPE C5, SPTLC2 C99, UBE2O C370, and TK1 C3)”. For the same molecule, the “direct LC-MS/MS profiling” value [4] was “transporters (RAE1 C106, S100A16C4, VDAC2 C91 and C225)”.
